SMILES strings stand for the structures.

In data set [1] the test system is TNF-α/D-gal-induced liver injury. As to the method: Male C57BL/6J ([…], Bar Harbor, Me.), 8-12-wk-old inos^−/− mice and wild type littermates (bred/maintained at the University of Pittsburgh) were used for in vivo experiments.
10 mg/kg subcutaneously (s.c.), Alexis Biochem., San Diego, Calif.) or cobalt protoporphyrin (CoPP, 5 mg/kg, intraperitoneally (i.p.), Frontier Scientific, Logan, Utah). […] Where indicated, acetaminophen (Sigma Chem. Co.; St Louis, Mo.) was administered (500 mg/kg, i.p.).
A CO analyzer (Interscan, Chatsworth, Calif.) was used to measure CO levels continuously in the chamber. CO concentrations were maintained at 250 ppm at all times. Mice were placed in the exposure chamber as required.
Whether HO-1 is protective against acute hepatic failure was investigated. Cobalt protoporphyrin (5 mg/kg, i.p.) was administered to male C57BL/6J mice. Twenty-four hours later, TNF-α/D-gal (0.3 μg/8 mg/mouse, i.p., respectively) was administered to the mice. Serum alanine aminotransferase (ALT) levels in the mice were measured 8 hours after administration of TNF-α/D-gal.
After receiving TNF-α/D-gal, mice were returned to the CO exposure chamber and their serum was analyzed for ALT levels 6-8 hr later.
To generate the data presented in FIGS. 11A-11H, liver samples from mice treated with TNF-α/D-gal in the presence and absence of CO (250 ppm) for 8 hr were sectioned and stained for hematoxylin & eosin (H&E), activated caspase 3 (as indicated by an increase in red intensity), and for TUNEL positive cells (as demarcated by the increased green cellular staining; a marker of cell death). Nuclei stained blue.
L-NIL was administered 2 hr prior to CO. CO-treated animals were then pre-treated (250 ppm) for 1 hr prior to TNF-α/D-gal.
VP was selectively designed to deliver NO directly to the liver. One hour after the initial VP dose, the animals were exposed to CO for 1 hr prior to administration of TNF-α/D-gal (see above). Serum ALT levels were determined 6-8 hr later.
These mice and inos^−/− mice were then administered CoPP. L-NIL was maintained in the water throughout the experiment. Control and inos^−/− mice received normal drinking water. Twenty-four hr after administration of CoPP, TNF-α/D-gal was administered and serum ALT determined 6-8 hr later.

Data set [2] concerns mouse primary hepatocytes. In words: TNF-α/ActD-induced cell death, crystal violet viability. The format is cell-based. As to the method: Mouse primary hepatocytes were harvested from C57BL/6J, mkk3^−/−, inos^−/− (in-house breeding colony), or hmox-1^−/− mice as described in Kim et al. (J. Biol. Chem. 272: 1402-1411 (1997)). Hepatocytes were used on days 1-3 following harvest.
Cells were treated with TNF-α (10 ng/ml) and actinomycin-D (Act-D; 200 ng/ml, Sigma Chemical Co. St. Louis, Mo.) to induce cell death.
Whether exogenous CO is protective against hepatocyte cell death in vitro was investigated. To generate the data presented in FIG. 2, mouse hepatocytes were pre-incubated with CO (250 ppm) for 1 hr (standard pre-treatment time for all experiments) prior to addition of TNF-α/Act-D (10 ng/200 ng/ml respectively). Cells were maintained in CO for the duration of the experiment. Twelve hours afterward, cell viability was measured as described in Kim et al. (J. Biol. Chem. 272: 1402-1411 (1997)). Adenoviral experiments involved incubating hepatocytes overnight with 10 pfu/cell of the adenovirus prior to addition of TNF-α/ActD, and then assaying for viability using crystal violet. The roles of signaling molecules guanylyl cyclase and p38 MAPK were also investigated in this model. To evaluate the role of cGMP and confirm the role of NF-κB, hepatocytes were treated separately with the soluble guanylate cyclase (sGC) inhibitor 1H-[1,2,4]Oxadiazolo[4,3-a]quinoxalin-1-one (ODQ; Calbiochem; 2-10 μM) or the NF-κB inhibitor BAY 11-7082, (10 μM). Cells were treated with the inhibitors for 1 hour prior to the 1 hour pretreatment with CO. TNF-α/ActD was then added and the cells tested for viability 12 hours later. NF-κB activation was critical to the protection elicited by CO while cGMP was not involved.
To generate the data presented in FIG. 9, mouse hepatocytes were isolated from inos^−/− or from wild type C57BL/6J mice, which were then pre-treated for 1 hr with L-NIO (1 mM) to inhibit iNOS prior to CO administration. Those groups exposed to CO received a one-hour pretreatment prior to addition of TNF-α/ActD and were then returned to CO exposure.
To generate the data presented in FIG. 19, mouse hepatocytes were isolated from HO-1 null mice (hmox-1^−/−) and wild type (C57BL/6J) littermates, pretreated for 1 hour with CO (250 ppm), and treated with TNF-α/ActD. Viability was assayed as described above.
To generate the data presented in FIG. 20, mouse hepatocytes were isolated from HO-1 null mice (hmox-1^−/−) and wild type (C57BL/6J) littermates, pretreated with the NO donor SNAP (500 μM), and then treated with TNF-α/ActD 1 hour later.

Another data set deals with HO-1. In words: Liver HO-1 expression (immunoblot). The format is in vivo, mice. The settings on record: L-NIL 5 mg/kg i.p., room air. As for the experimental part: Western blot analysis was performed on primary hepatocytes in culture or from liver homogenates with antibodies to iNOS (Transduction Laboratories, Lexington, Ky.; 1:1000), HO-1 (Calbiochem; 1:2000), or β-actin (Sigma Chemical; 1:5000). Thirty μg protein in cell culture experiments or 100 μg protein from liver homogenates was loaded per well for SDS-PAGE.
To assess the role of iNOS on TNF-α/D-gal-induced HO-1 expression in the liver (data presented in FIG. 16), mice were administered L-NIL (5 mg/kg, i.p.) 2 hr prior to pre-treatment with CO (250 ppm) and every 2 hr thereafter. Control mice received L-NIL and remained in room air.
On the technique in general: A western blot detects proteins with antibodies after separation by electrophoresis.

In a further data set the test system is iNOS. Nature of the data set: iNOS promoter luciferase reporter assay in hepatocytes. It is filed as cell-based. Particulars: BAY 11-7082 10 μM 1 hr prior to CO. As for the experimental part:
In some experiments, gene transfer of an IκBα superrepressor (Hellerbrand et al., Hepatology 27:1285-1295 (1998)) or β-galactosidase using adenoviral vectors (10 pfu/cell) was performed 12 hours prior to TNF-α/ActD treatment. NF-κB activation was evaluated using a luciferase reporter assay as described in Chow et al. (J. Biol. Chem. 274: 10689-10692 (1999)). Briefly, hepatocytes were co-transfected with NF-κB reporter constructs (pGL3-kappaβ luciferase, 100 ng/well; and pIEP-Lac-z 0.5 μg/well) using Lipofectin™ (Invitrogen, Carlsbad, Calif.) as instructed by the manufacturer. Evaluation of iNOS expression was performed using a luciferase reporter assay as described in Lowenstein et al. (Proc. Natl. Acad. Sci. U.S.A 90: 9730-9734 (1993)). Briefly, hepatocytes were co-transfected with iNOS promoter reporter constructs (pXP2; 1 μg/well) and pIEP-LacZ (0.5 μg/well) as described above.
Hepatocytes were transfected with plasmids as described above and treated with various stimuli 24 hours after transfection. Luciferase activity (reported as arbitrary units; A.U.) was assayed 6 hours after initiation of treatment, using a luciferase assay kit (Promega, Madison, Wis.) and a Berthold Luminometer. Results were corrected for transfection efficiency and protein concentration. […]

The test system of data set [3] is mouse primary hepatocytes. In words: TNF-α/ActD-induced cell death, crystal violet viability. It is filed as cell-based. The settings on record: BAY 11-7082 (10 μM) to inhibit NF-κB activation.
The mark [4] stands for this setting: SNAP 500 μM, 1 hour before TNF-α/ActD.

As to `C=Cc1c2[n-]c(c1C)/C=c1\[n-]/c(c(C)c1C=C)=C\c1[n-]c(c(CCC(=O)O)c1C)/C=c1\[n-]c(c(C)c1CCC(=O)O)=C2.[Sn+4]` [SnPP, tin protoporphyrin], the “Effect on the protective effects of CO” value in data set [1] (SnPP 50 μmol/kg s.c. 5 hr prior to CO, TNF-α/D-gal) is reported as “significantly diminished”. For the same compound, the “Effect on protection by the NO donor V-PYRRO/NO” value in data set [1] (TNF-α/D-gal with SnPP) is on record as “abrogated”. In data set [1] (data not shown), the “Effect of administration in the absence of TNF-α/D-gal” value is “no deleterious or protective effects”.

Regarding `O=c1onc2cnc3ccccc3n12` [ODQ, 1H-[1,2,4]Oxadiazolo[4,3-a]quinoxalin-1-one, reference compound], the “Effect on protection provided by CO” value in data set [2] (ODQ 2-10 μM, 1 hour prior to CO pretreatment) is “did not reverse the protection”.

For the compound `CC(=O)N[C@H](C(=O)O)C(C)(C)SN=O` [SNAP, s-nitroso-N-acetyl-penicillamine, reference compound], in data set [2] (setting [4]), the “TNF-α/ActD-induced cell death, hmox-1−/− hepatocytes” value is given as “did not provide significant protection” and the “TNF-α/ActD-induced cell death, wild type hepatocytes” value was “significantly protected against cell death”.

As for `C=CC1=C(C)c2cc3[n-]c(cc4nc(cc5[n-]c(cc1n2)c(C)c5CCC(=O)[O-])C(CCC(=O)[O-])=C4C)c(C)c3C=C.[Co+2].[H+].[H+]` [CoPP, cobalt protoporphyrin], in data set [1] (5 mg/kg i.p. 24 h before TNF-α/D-gal, ALT 8 hours after, C57BL/6J mice), the “Liver injury as measured by serum ALT” value was “prevented liver injury”. The Liver injury entry in data set [1] (CoPP with and without L-NIL (4.5 mM drinking water), TNF-α/D-gal 24 hours after CoPP) is reported as “protected from liver injury”. Also, in data set [1] (inos−/− mice, CoPP 24 hr before TNF-α/D-gal, 6-8 hr later), the “Reduction in serum ALT” value is given as over 50%.

Turning to `CC(=N)NCCCC[C@H](N)C(=O)O.Cl.Cl` [L-NIL, L-N6-(1-iminoethyl)-lysine-dihydrochloride, reference compound], the “Severity of liver injury, L-NIL alone” value in data set [1] (L-NIL 4.5 mM in drinking water, TNF-α/D-gal) is given as “did not change the severity of injury”. In the data set on HO-1, the “Liver HO-1 expression, L-NIL alone” value is “minimal effect”.

Turning to `Cc1ccc(S(=O)(=O)/C=C/C#N)cc1` [BAY 11-7082, reference compound], the “iNOS luciferase reporter activity with NF-κB inhibitor” value in the data set with iNOS is “decreased reporter activity”. Also, the “Effect on the protective effects of CO” value in data set [3] was “abrogated”.

(Values after patent publication US9522163B2, “Methods of treating hepatitis” (priority 2002, dated 2016).)
